PMC6804044, “Design, Synthesis and Biological Evaluation of Pentacyclic Triterpene Derivatives: Optimization of Anti-ABL Kinase Activity” (Molecules, 2019)
“Also recorded” adds a separate entry of the source. Where two headings read alike, the source gives them in different places.

What was measured:
ABL1 kinase = molecular target: T1, ABL1 kinase (Homo sapiens, UniProt P00519); experiment: ABL1 kinase inhibition (ADP-Glo Kinase Assay); type: biochemical; settings: for IC50: ADP-Glo, 1 h incubation, room temperature
T1 construct: purchased Promega, Madison, WI, USA
Experimental: The ABL1 kinase profiling assay protocol was applied according to the manufacturer`s instructions (Promega, Madison, WI, USA) with the modification proposed in [36]. In this system, the ABL1 kinase and its substrate were diluted with 95 µL 2.5x Kinase Buffer and 15 µL of 100 µM ATP solutions, respectively. Then, the reaction of ABL1 kinase was performed using 2 µL of the compound solution at varying concentrations (0.1–30 µM), 4 µL of kinase working stock, and 4 µL of ATP/substrate working stock in the 384-well plate. After 1 h of incubation at room temperature, the activity of the ABL1 kinase was detected using the ADP-Glo Kinase Assay (Promega, Madison, WI, USA) and the inhibitory kinase activity of compounds in dose-response mode was measured by the Infinitive M1000 luminescence plate reader (Tecan, Groding, Austria).

[1] = test system: HeLa human cervical carcinoma; experiment: MTT cell viability assay, HeLa; type: cell-based; settings: 24 h exposure
Experimental: (§1) A549 human lung carcinoma and HeLa human cervical carcinoma cell lines were cultured in Dulbecco’s Modified Eagle Medium (DMEM). MCF7 human breast cancer and leukemic (K562, HL-60, MT-2 and Jurkat) cells, and PBMC (Precision Bioservices, Frederic, MD, USA) were cultured in RPMI 1640. All media were purchased from FUJIFILM Wako (Osaka, Japan) and supplemented with 10% fetal bovine serum (FBS) (Sigma-Aldrich, St. Louis, MO, USA) and 89 μg/mL streptomycin (Meiji Seika Pharma, Tokyo, Japan) at 37 °C in a humid atmosphere and 5% CO2. In experiments, all cancer cell lines and PBMC were cultured in 24-well and 96-well plates (Iwaki brand Asahi Glass, Chiba, Japan) at 2 × 10^4 cells/mL and 1 × 10^6 cells/mL concentrations, respectively for 24 h.
(§2) The cells were exposed to various concentrations (1–100 μM) of the compounds for 24 h at 37 °C. The cells were then stained with MTT solution and incubated for additional 4 h. At the end of this period, supernatants were removed and 100 μL DMSO was added to each well to solubilize the formazan crystals. The absorbance of the solution was determined on the Infinitive M1000 (Tecan, Mannedorf, Switzerland) plate reader at a wavelength of 550 nm with background subtraction at 630 nm.

MT-2 = experiment: MTT cell viability assay, MT-2; type: cell-based; settings: Homo sapiens, MT2, 24 h exposure
Experimental: as §1, §2

[2] = test system: peripheral blood mononuclear cells (PBMC); experiment: MTT cell viability assay, PBMC; type: cell-based; settings: 24 h exposure
Experimental: as §1, §2

MCF7 human breast cancer = experiment: MTT cell viability assay, MCF7; type: cell-based; settings: 24 h exposure
Experimental: as §1, §2

K562 cells = experiment: Cell death detection (Hoechst 33342/annexin V/ethidium homodimer III staining); type: cell-based, human; settings: K562, IC50 concentration, 8 h
Experimental: The cells were then briefly washed twice with 1 × binding buffer. A staining solution containing 50 μL of 1 × binding buffer and 5 μL of FITC-Annexin V solution, 5 μL of ethidium homodimer III solution, or 5 μL of Hoechst 33342 solution was added, and incubated for 15 min at room temperature in the dark. Then, the cells were washed with 1 × binding buffer, and analyzed by the all-in-one fluorescence microscope Biorevo Fluorescence BZ-9000 (Keyence, Osaka, Japan). The number of healthy cells (Hoechst 33342), apoptotic cells (Annexin V), late apoptotic or necrotic cells (Annexin V and Ethidium homodimer III) and necrotic cells (Ethidium homodimer III) were counted as previously described.

[3] = test system: A549 human lung carcinoma; experiment: MTT cell viability assay, A549; type: cell-based; settings: for IC50: Homo sapiens, A549, MTT, 24 h exposure
Experimental: as §1, §2

[4] = test system: ERK1/2 and phosphorylated ERK1/2 in K562 cells; experiment: Immunoblot analysis of ERK signaling in K562; type: cell-based, human; settings: K562, 10 μM, 6 h
Experimental: After 6 h of treatment at 37 °C, the cells were lysed in PBS-Laemmli sample buffer and then, immunoblot analysis was conducted using phospho-specific-p44/42 MAPK (Erk1/2) (Thr202/Tyr204) (D13.14.4E) XP Rabbit mAb (1:1000) (Cell Signaling Technology, Danvers, MA, USA) or anti-β-actin clone AC-15 (Sigma-Aldrich, St. Louis, MO, USA). For immunoreactivity detection, the chemiluminescence method was performed as previously described. The band intensity was measured using the ImageJ software (NIH, Bethesda, MD, USA).

HL-60 = experiment: MTT cell viability assay, HL-60; type: cell-based; settings: Homo sapiens, 24 h exposure
Experimental: as §1, §2

Jurkat = experiment: MTT cell viability assay, Jurkat; type: cell-based; settings: Homo sapiens, 24 h exposure
Experimental: as §1, §2

CML cell line K562 = experiment: MTT cell viability assay, K562; type: cell-based, human; settings: for IC50: read-out: IC50 Values, K562 Cell Line; for SI (selectivity index): ratio of the IC50 between PBMC and K562 cells
Experimental: A549 human lung carcinoma and HeLa human cervical carcinoma cell lines were cultured in Dulbecco’s Modified Eagle Medium (DMEM). […] In experiments, all cancer cell lines and PBMC were cultured in 24-well and 96-well plates (Iwaki brand Asahi Glass, Chiba, Japan) at 2 × 10^4 cells/mL and 1 × 10^6 cells/mL concentrations, respectively for 24 h.
as §2, with “The” for “The cells were exposed to various concentrations (1–100 μM) of the compounds for 24 h at 37 °C. The”

[5] = Homo sapiens, K562, 24 h, MTT, 24 h exposure

T1 sequence (P00519 whole entry): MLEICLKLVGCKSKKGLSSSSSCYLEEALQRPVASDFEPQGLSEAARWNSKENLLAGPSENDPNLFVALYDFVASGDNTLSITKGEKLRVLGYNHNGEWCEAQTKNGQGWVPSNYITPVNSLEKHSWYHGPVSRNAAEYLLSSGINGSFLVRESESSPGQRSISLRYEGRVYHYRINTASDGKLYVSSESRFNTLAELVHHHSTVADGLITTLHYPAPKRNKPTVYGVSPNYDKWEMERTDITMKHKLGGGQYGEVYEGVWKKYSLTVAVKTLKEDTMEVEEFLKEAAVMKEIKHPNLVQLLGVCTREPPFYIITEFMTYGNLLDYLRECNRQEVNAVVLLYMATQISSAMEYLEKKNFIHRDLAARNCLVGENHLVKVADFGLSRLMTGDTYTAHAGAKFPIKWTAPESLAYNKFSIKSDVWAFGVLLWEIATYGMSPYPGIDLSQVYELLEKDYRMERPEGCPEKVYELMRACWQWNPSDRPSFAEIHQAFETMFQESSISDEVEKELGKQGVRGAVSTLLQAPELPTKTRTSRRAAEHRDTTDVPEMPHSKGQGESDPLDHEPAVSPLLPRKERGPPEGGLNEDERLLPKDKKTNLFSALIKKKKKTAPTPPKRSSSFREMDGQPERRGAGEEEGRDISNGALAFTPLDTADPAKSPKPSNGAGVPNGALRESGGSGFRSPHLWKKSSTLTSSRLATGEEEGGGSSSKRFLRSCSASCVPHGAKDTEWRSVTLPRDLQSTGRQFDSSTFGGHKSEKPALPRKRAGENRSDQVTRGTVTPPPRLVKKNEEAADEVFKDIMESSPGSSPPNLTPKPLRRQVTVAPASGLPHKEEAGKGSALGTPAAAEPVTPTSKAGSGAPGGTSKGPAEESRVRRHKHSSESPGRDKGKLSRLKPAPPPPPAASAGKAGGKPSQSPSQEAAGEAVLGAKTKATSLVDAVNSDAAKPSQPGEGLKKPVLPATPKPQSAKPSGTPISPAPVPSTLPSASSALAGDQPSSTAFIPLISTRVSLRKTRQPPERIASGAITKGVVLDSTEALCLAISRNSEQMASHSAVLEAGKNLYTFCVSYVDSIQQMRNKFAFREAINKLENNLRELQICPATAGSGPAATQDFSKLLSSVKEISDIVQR

| Compound | IC50 (CML cell line K562; [5]) | IC50 ([2]; PBMC) | SI (selectivity index) (CML cell line K562) | other results |
| --- | --- | --- | --- | --- |
| CC1(C)CC[C@]2(C(=O)OCc3ccc(C#N)cc3)CC[C@]3(C)C(=CC[C@@H]4[C@@]5(C)CC[C@H](O)[C@@](C)(C=O)[C@@H]5CC[C@]43C)[C@@H]2C1 [GP5, Gypsogenin 4-cyanobenzyl ester] | 3.19 ± 1.21 µM | 25.6 ± 2.18 µM | 8.03 | IC50 (ABL1 kinase): 6.16 ± 0.63 µM; IC50 [1]: 5.66 ± 0.32 µM; IC50 (MT-2): 7.26 ± 0.97 µM; IC50 (MCF7 human breast cancer): 15.3 ± 2.11 µM; apoptotic effects on CML cell line (K562 cells): 9.5%; late apoptotic/necrotic effects (K562 cells): 5.1%; IC50 [3]: 24.6 ± 1.94 µM; ERK phosphorylation (phosphorylated ERK1/2) [4]: inhibitory effect of ERK phosphorylation; amount of ERK1/2 [4]: moderately decreased; melting point: 175 to 177 °C; IC50 (HL-60): 4.36 ± 0.28 µM; IC50 (Jurkat): 4.83 ± 0.35 µM |
| C=C(C)[C@@H]1CC[C@]2(C(=O)O)CC[C@]3(C)[C@H](CC[C@@H]4[C@@]5(C)CC[C@H](O)C(C)(C)[C@@H]5CC[C@]43C)[C@@H]12 [BA, betulinic acid, reference compound] | 52.3 ± 4.79 µM | > 100 µM | >1.91 | – |
| Cc1ccc(NC(=O)c2ccc(CN3CCN(C)CC3)cc2)cc1Nc1nccc(-c2cccnc2)n1 [Imatinib, reference compound] | – | – | – | apoptotic effects on CML cell line (K562 cells): 18%; late apoptotic/necrotic effects (K562 cells): 5.6% |
| CC1(C)[C@@H](O)CC[C@]2(C)[C@H]3C(=O)C=C4[C@@H]5C[C@@](C)(C(=O)OCc6ccccc6)CC[C@]5(C)CC[C@@]4(C)[C@]3(C)CC[C@@H]12 [PT3, Glycyrrhetic acid benzyl ester] | – | > 100 µM | >1.44 | IC50 (CML cell line K562; Homo sapiens, K562, 24 h): 69.5 ± 8.43 µM |
| COc1ccc(COC(=O)[C@]23CCC(C)(C)C[C@H]2C2=CC[C@@H]4[C@@]5(C)CC[C@H](O)[C@@](C)(C=O)[C@@H]5CC[C@@]4(C)[C@]2(C)CC3)cc1 [GP1, Gypsogenin 4-methoxybenzyl ester] | 5.53 ± 1.78 µM | 25.1 ± 2.92 µM | 4.53 | melting point: 78 to 80 °C |
| gypsogenin [GP, reference compound] | – | – | – | IC50 [2]: > 100 µM; IC50 (CML cell line K562; MTT, 24 h exposure): 12.7 ± 2.15 µM |
| CC1(C)CC[C@]2(C(=O)OCc3cc(F)cc(F)c3)CC[C@]3(C)C(=CC[C@@H]4[C@@]5(C)CC[C@H](O)[C@@](C)(C=O)[C@@H]5CC[C@]43C)[C@@H]2C1 [GP4, Gypsogenin 3,5-difluorobenzyl ester] | 5.13 ± 1.38 µM | 28.3 ± 2.25 µM | 5.51 | melting point: 58 to 60 °C |
| CC1(C)CC[C@]2(C(=O)OCc3ccccc3)CC[C@]3(C)C(=CC[C@@H]4[C@@]5(C)CC[C@H](O)C(C)(C)[C@@H]5CC[C@]43C)[C@@H]2C1 [PT5, Oleanolic acid benzyl ester] | ~5.5 µM | 50.2 ± 4.58 µM | 9.19 | IC50 (ABL1 kinase): 1.44 ± 0.12 µM; ABL kinase IC50 potency relative to 1c (ABL1 kinase; fold vs 1c): six times stronger; also recorded: about sixfold; IC50 [1]: 67 ± 4.19 µM; IC50 (MT-2): 34.7 ± 3.85 µM; IC50 (MCF7 human breast cancer): 53.9 ± 6.46 µM; apoptotic effects on CML cell line (K562 cells): 14%; late apoptotic/necrotic effects (K562 cells): 11%; activity against A549 cell line at 100 µM ([3]; 100 µM): inactive; IC50 [3]: > 100 µM; ERK phosphorylation (phosphorylated ERK1/2) [4]: inhibitory effect of ERK phosphorylation; amount of ERK1/2 [4]: moderately decreased; IC50 (HL-60): 15.7 ± 1.36 µM; IC50 (Jurkat): 13.8 ± 1.58 µM; IC50 (CML cell line K562; MTT, 24 h exposure): 5.46 ± 1.51 µM |
| CC1(C)[C@@H](O)CC[C@]2(C)[C@H]3C(=O)C=C4[C@@H]5C[C@@](C)(C(=O)O)CC[C@]5(C)CC[C@@]4(C)[C@]3(C)CC[C@@H]12 [GA, glycyrrhetinic acid, reference compound] | 41 ± 5.34 µM | > 100 µM | >2.43 | – |
| CC1(C)CC[C@]2(C(=O)OCc3ccc(C(F)(F)F)cc3)CC[C@]3(C)C(=CC[C@@H]4[C@@]5(C)CC[C@H](O)[C@@](C)(C=O)[C@@H]5CC[C@]43C)[C@@H]2C1 [GP3, Gypsogenin 4-trifluoromethyl benzyl ester] | 4.58 ± 1.49 µM | 23.2 ± 3.08 µM | 5.07 | melting point: 175 to 177 °C |
| C[C@H]1[C@H](C)CC[C@]2(C(=O)O)CC[C@]3(C)C(=CC[C@@H]4[C@@]5(C)C[C@@H](O)[C@H](O)[C@@](C)(CO)[C@@H]5CC[C@]43C)[C@H]12 [AA, asiatic acid, reference compound] | 29.3 ± 3.42 µM | > 100 µM | >3.41 | – |
| C=C(C)[C@@H]1CC[C@]2(C(=O)OCc3ccccc3)CC[C@]3(C)[C@H](CC[C@@H]4[C@@]5(C)CC[C@H](O)C(C)(C)[C@@H]5CC[C@]43C)[C@@H]12 [PT2, Betulinic acid benzyl ester] | 8.49 ± 1.22 µM | 28 ± 2.74 µM | 3.29 | – |

The next lines start with results.

| IC50 (CML cell line K562; [5]) | Compound | IC50 ([2]; PBMC) | SI (selectivity index) (CML cell line K562) | other results |
| --- | --- | --- | --- | --- |
| ~13 µM | CC1(C)CC[C@]2(C(=O)O)CC[C@]3(C)C(=CC[C@@H]4[C@@]5(C)CC[C@H](O)C(C)(C)[C@@H]5CC[C@]43C)[C@@H]2C1 [OA, oleanolic acid, reference compound] | > 100 µM | – | IC50 (CML cell line K562; MTT, 24 h exposure): 13.5 ± 2.55 µM |
| 6.48 ± 1.27 µM | CC1(C)CC[C@]2(C(=O)OCc3ccccc3)CC[C@]3(C)C(=CC[C@@H]4[C@@]5(C)CC[C@H](O)[C@@](C)(CO)[C@@H]5CC[C@]43C)[C@@H]2C1 [PT4, Hederagenin benzyl ester] | 23.1 ± 3.11 µM | 3.56 | cytotoxicity on K562 relative to parent triterpene HE (CML cell line K562; fold vs HE): more than 15 times |
| > 100 µM | CC1(C)CC[C@]2(C(=O)O)CC[C@]3(C)C(=CC[C@@H]4[C@@]5(C)CC[C@H](O)[C@@](C)(CO)[C@@H]5CC[C@]43C)[C@@H]2C1 [HE, hederagenin, reference compound] | > 100 µM | >1 | – |
| 16.5 ± 1.13 µM | C[C@H]1[C@H](C)CC[C@]2(C(=O)O)CC[C@]3(C)C(=CC[C@@H]4[C@@]5(C)CC[C@H](O)C(C)(C)[C@@H]5CC[C@]43C)[C@H]12 [UA, ursolic acid, reference compound] | > 100 µM | >6.06 | – |
| 4.1 ± 0.85 µM | C[C@H]1[C@H](C)CC[C@]2(C(=O)OCc3ccccc3)CC[C@]3(C)C(=CC[C@@H]4[C@@]5(C)C[C@@H](O)[C@H](O)[C@@](C)(CO)[C@@H]5CC[C@]43C)[C@H]12 [PT1, Asiatic acid benzyl ester] | 15.5 ± 1.08 µM | 3.79 | – |
| 21.8 ± 1.24 µM | C[C@H]1[C@H](C)CC[C@]2(C(=O)OCc3ccccc3)CC[C@]3(C)C(=CC[C@@H]4[C@@]5(C)CC[C@H](O)C(C)(C)[C@@H]5CC[C@]43C)[C@H]12 [PT6, Ursolic acid benzyl ester] | 43.3 ± 1.93 µM | 1.99 | – |
